Data: patent US10551393B1, “High-throughput, in vivo screening platform for modulators of Apolipoprotein B” (THE JOHNS HOPKINS UNIVERSITY, priority 2016, dated 2020)
“Also recorded” adds a separate entry of the source.

What was measured:
[1] = test system: ApoB-NanoLuc® luciferase reporter; assay: ApoB-NanoLuc luciferase reporter assay in transgenic zebrafish larvae (primary screen); type: in vivo
Protocol: Of the two existing inhibitors of ApoB, lomitapide is the most appropriate for use as a proof of principle because it is a small molecule. Conversely, mipomersen is an injectable antisense biologic that is not suitable for comparison to small-molecule inhibitors and cannot be used a high-throughput manner. Larval zebrafish were treated with serial dilutions of the lomitapide for 36 hours from 2.5 to 4 dpf.
There are detailed protocols for the development and execution of a high-throughput screen using live vertebrate zebrafish (26, 27). The high-throughput screen uses transgenic zebrafish that carry both an engineered luciferase reporter (NanoLuc® luciferase) fused to ApoB which serves as the primary readout, and a second ubiquitously expressed firefly luciferase reporter that is used as an internal control. Transgenic larvae are raised to 3 days post-fertilization (dpf) and automatically sorted and dispensed into 96-well plates containing various dilutions of test compound. Following 48-hour incubation with test and control compounds, the zebrafish are homogenized and assayed sequentially for Firefly and NanoLuc® luciferase signal using the automated robotics platform and plate reader. Hit-calling software is used to select putative hits, which are validated through repetition and orthogonal screening. The first iteration of the screen uses a modest-sized library (3,000 compounds), and empirical determination of the optimal sample size and number of titration points required for screening enables an increase in throughput for the following iteration of the screen, which screens a 30,000 compound library.
Statistical resampling of positive control treatments can be used to estimate the appropriate sample size for HTS assays given type I and type II error rate thresholds and a desired cutoff for effect size (27). Assuming a type II error rate of 0.01 and setting the hit selection cutoff to 50% the magnitude of positive control treatment generates a log-linear relationship between sample size and type I error rate. […] Besides serving as a metric for assay quality, the SSMD score can also be used to determine hit cutoff criteria. This statistical test compares the averages between the negative control and each experimental sample, and then adjusts this difference based on the median absolute deviation (MAD) of each sample, such that samples with high variability are penalized and produce a poor SSMD score even if there is a large difference between the means. In positive control treatments, lomitapide produced an SSMD score of −4.5, reflecting a very strong control assay. The scaling factor formula can be used to determine the SSMD cutoff based on the desired magnitude relative to the positive control. A compound with a 50% effect size relative to MTP was chosen as a physiologically relevant effect size, which would produce an SSMD score of −2.7.
Day 1: Embryo production and collection—zebrafish homozygous for the ApoB-NanoLuc® luciferase and ubi:Fluc reporters are induced to spawn using custom mass-breeding chambers. Eggs are collected hourly from 9 AM to 2 PM. Embryos are maintained in petri dishes at a density of 5 fish/mL of embryo medium (E3). Day 2: Raising embryos—Embryos are maintained in E3 (1 dpf). Day 3: Raising embryos and preparing drug plates—Embryos are maintained in embryo medium (2 dpf). […]

[2] = test system: firefly luciferase internal control reporter; assay: Firefly luciferase internal control (counter-screen) of the dual luciferase assay; type: in vivo; settings: preliminary screen; cutoff SSMD ±2.4
From the text: The primary screen seeks to identify compounds that lower ApoB levels, which is likely to identify numerous false positives that are cytotoxic or inhibit fundamental cellular processes such as transcription or translation. The inclusion of a counter-screen helps identify compounds that have strong effects on the target phenotype without causing major disruptions in other cellular processes. The pd75 zebrafish line carries a ubiquitous promoter driving firefly luciferase as well as the mCherry fluorescent reporter, which can be used to detect developmental delay or cytotoxicity in any organ. […]
The Nano-Glo® dual luciferase assay provides the means to independently measure firefly and NanoLuc® luciferase in a single reaction enabling parallel measurement of the primary screen reaction and counter-screen reaction in a high-throughput compatible add-and-read format. Consistent measurement of luciferase activity requires homogenous sample inputs, so we have developed homogenization methods using a microplate sonicator that exceeds the throughput capacity of the plate reader.
The NanoLuc® luciferase reporter uses a different substrate than firefly luciferase, allowing a second luciferase reporter to be measured in parallel as an internal control. […]

[3] = test system: ApoB-containing lipoprotein particles; assay: In-gel luciferase assay for lipoprotein size distribution; type: in vivo, zebrafish; settings: for lipoprotein particle size distribution: larval zebrafish homogenate, polyacrylamide gel, in-gel luciferase
Protocol: To evaluate whether introduction of the luciferase tag disrupted protein function, individual larvae carrying the reporter construct were homogenized and lipoprotein classes were separated on a 3% PAGE gel (see Singh et al. Lipids in Health and Disease 7:47, 2008). An in-gel luciferase assay was then performed to detect the NanoLuc® luciferase reporter present in the gel (FIG. 2A), and compared to the results obtained from adult zebrafish serum that was stained using lipophilic fluorescent dye (FIG. 2B). Encouragingly, essentially all of the signal was present in the expected VLDL, IDL, and LDL portions of the gel, which is consistent with the primary role of ApoB as an obligate structural component of lipid-rich lipoproteins. Additionally, this method has sufficient sensitivity and resolution to detect LDL subclasses, which are seen as deviations from the normal distribution in the plot profile. […] Additionally, signal from the ApoB-luciferase fusion is responsive to known chemical and physiological modulators of ApoB (MTP inhibition and fasting).
The in-gel luciferase assay developed in our lab provides the opportunity to rapidly and sensitively detect changes in lipoprotein size distribution using individual larval zebrafish. Following a week of high-fat diet with or without treatment of test compound, larval zebrafish are homogenized and lipoproteins are separated on a 3% native PAGE gel and imaged using the in-gel luciferase reporter. This enables rapid assessment of lead compounds on effects of the potentially clinically important lipoprotein size distribution phenotype. […]
In addition to its utility as a high-throughput compatible readout for measuring levels of Apolipoprotein B, the described ApoB-NanoLuc® luciferase reporter can also be used to measure the size distribution and localization of ApoB-containing particles in zebrafish larvae. Lipoproteins separated using polyacrylamide gel electrophoresis can be sensitively detected in individual larval homogenates by immersing the gel in the NanoLuc® luciferase substrate. […]

[4] = test system: ApoB; settings: cited from earlier work

O=C(NC1CCN(CCCCC2(C(=O)NCC(F)(F)F)c3ccccc3-c3ccccc32)CC1)c1ccccc1-c1ccc(C(F)(F)F)cc1 [lomitapide]
reporter activity relative to vehicle-treated controls ([1]; larval zebrafish, serial dilutions, 36 hours from 2.5 to 4 dpf): dose-dependent reduction | SSMD score (ApoB-NanoLuc) ([1]; positive control treatments, hit cutoff −2.7): −4.5 | NanoLuc luciferase levels ([1]; preliminary screen, dose-response, hit selection cutoff −2.7): dose-dependent decrease | change in ApoB (ApoB-NanoLuc) ([1]; preliminary validation screen of lipid/lipoprotein metabolism compounds): significant change in ApoB | ApoB-NanoLuc luciferase levels in transgenic larvae ([1]; transgenic larvae): significantly lowered | effect on internal control reporter (firefly luciferase) [2]: without affecting the internal control reporter | ApoB levels ([3]; acute treatment, larval zebrafish, 3% native PAGE): significant reduction | lipoprotein particle size distribution [3]: unable to create large lipoprotein particles; also recorded: particle size and number are greatly reduced; also recorded: did not have large lipoprotein particles | lipoprotein particle size distribution ([3]; listed as Lomitapide): induced the formation of very small lipoprotein particles | ApoB levels in humans [4]: significant reduction
